From patent US11479528B2, “Heat shock protein 90 inhibitors” (TAIPEI MEDICAL UNIVERSITY, priority 2017, dated 2022) come the findings set out here.

For one series, the system named is colorectal HCT116. The series is described as follows: Sulforhodamine B (SRB) assay, colorectal HCT116. It is filed as cell-based. Conditions: Homo sapiens, HCT-116, SRB. The protocol:
(§1) Human cancer cells were purchased from the American Type Culture Collection (Manassas, Va., USA). These cell lines were cultured in RPMI 1640 medium or DMEM supplemented with 10% FBS (v/v) and pencillin (100 U/mL)/streptomycin (100 ug/mL)/amphotericin B (0.25 ug/mL). Cultures were maintained at 37° C. in a humidified atmosphere of 5% CO2/95% air.
(§2) Cells were seeded in 96-well plates in medium with 5% fetal bovine serum. After 24 h, cells were fixed with 10% trichloroacetic acid to represent cell population at the time of drug addition (T0). After additional incubation of DMSO or drugs for 48 h, cells were fixed with 10% trichloroacetic acid and sulforhodamine B at 0.4% (w/v) in 1% acetic acid was added to stain cells. Unbound sulforhodamine B was washed out by 1% acetic acid and sulforhodamine B-bound cells were solubilized with 10 mmol/L Trizma base. The absorbance was read at a wavelength of 515 nm. Using the following absorbance measurements, such as time zero (T0), control growth (C), and cell growth in the presence of the drug (Tx), the percentage growth was calculated at each of the compound concentrations levels. Percentage growth inhibition was calculated as […].

In another series the test system is prostate PC3. The series is described as follows: Sulforhodamine B (SRB) assay, prostate PC3. In kind it is cell-based. Conditions: Homo sapiens, Table 1, 48 h. The method, then: as §1, §2
A further series concerns lung A549. The series is described as follows: Sulforhodamine B (SRB) assay, lung A549. Conditions: Homo sapiens, A549, SRB. It is filed as cell-based, human. The protocol:
Human cancer cells were purchased from the American Type Culture Collection (Manassas, Va., USA).
Cells were seeded in 96-well plates in medium with 5% fetal bovine serum. […] Unbound sulforhodamine B was washed out by 1% acetic acid and sulforhodamine B-bound cells were solubilized with 10 mmol/L Trizma base. […] Using the following absorbance measurements, such as time zero (T0), control growth (C), and cell growth in the presence of the drug (Tx), the percentage growth was calculated at each of the compound concentrations levels. Percentage growth inhibition was calculated as […].

The subject of the next series is liver Hep3B. Briefly: Sulforhodamine B (SRB) assay, liver Hep3B. Conditions: Homo sapiens, Table 1, SRB, 48 h, read-out: GI50 Liver Hep3B. In kind it is cell-based. The method, then:
as §1, §2

A further series concerns HUVEC cells. The series is described as follows: Sulforhodamine B (SRB) assay, HUVEC. Conditions: Homo sapiens, HUVEC, 48 h, read-out: GI50 HUVEC. The method, then: as §1, §2
Series [1] is described as follows: Pharmacokinetic profiles in rat. Conditions: in vivo; for half-life: T1/2, rat.
Method: A pharmacokinetic study was conducted to evaluate the pharmacokinetic properties of compounds of formula (I).
A further series concerns breast MDA-MB-231. Briefly: Sulforhodamine B (SRB) assay, breast MDA-MB-231. In kind it is cell-based. Conditions: Homo sapiens, MDA-MB-231; Table 1; SRB, 48 h; read-out: GI50 Breast MDA-MB-231. The protocol:
as §1, §2

In another series the target is HSP90 α protein (Homo sapiens, UniProt P07900). Briefly: HSP90 ATP-binding / fluorescence polarization competition assay (enzyme inhibition). Conditions: 5 nM fluorescent GM, 30 nM HSP90 α; read-out: HSP90 IC50 enzyme inhibition. The method, then: To assess the inhibition of HSP90 activity within a cellular context, cells were treated with certain substituted aromatic compounds of formula (I) and the inhibition of HSP90 ATP-binding activity in cells was determined by using an ATP pull-down assay. Cells were treated with the compounds for 24 hours and then lysed in TNESV buffer (50 mM Tris, 2 mM EDTA, […], 1 mM activated sodium orthovanadate, 25 mM NaF, 1% Triton X-100 [pH 7.5]) for 30 min at 4° C. Lysates were spun for 30 min at 12000 rpm at 4° C. Protein (200 ug) was incubated with conditioned γ-ATP-polyacrylamide resin in incubation buffer (10 mM Tris-HCl, 50 mM KCl, 5 mM MgCl2, 20 mM Na2MoO4, 0.01% Nonidet P-40) overnight at 4° C., rotating. The resin was then washed four times with incubation buffer. Bound proteins were isolated by boiling with SDS buffer. For the competition studies, fluorescence polarization assays were performed under the following conditions: each 96-well plate contained 5 nM fluorescent GM (geldanamycin), 30 nM HSP90 α protein, and tested inhibitor in a final volume of 100 uL. For each assay, background wells (buffer only), tracer controls (free, fluorescent GMonly), and bound GM controls (fluorescent GM in the presence of HSP90) were included on each assay plate. The fraction of tracer bound to HSP90 was correlated to the mP value and plotted against log 10 values of competitor concentrations. The inhibitor concentration at which 50% of bound GM was displaced was obtained by fitting the data.

In series [2] the test system is human colon HCT116 xenograft. The series is described as follows: Human colon HCT116 xenograft model. Conditions: 100 mg/kg, qd, po; n = 7-8. The protocol:
An in vivo study was conducted to evaluate the efficacy of compounds of formula (I) in suppressing tumor growth in a human colon HCT116 xenograft model.

The mark [3] stands for this setting: Table 1, 48 h, read-out: GI50 Colorectal HCT116.
The mark [4] stands for this setting: Table 1, 48 h, read-out: GI50 Lung A549.

Like-named read-outs stand apart in the source and are kept apart here. A value given as a limit tells only on which side of the number the result lay.

As to `CCN(C(=O)c1cc(C(C)C)c(O)cc1O)c1cc(C)nc2ccccc12` [Compound 32c, N-ethyl-2,4-dihydroxy-5-isopropyl-N-(2-methylquinolin-4-yl)benzamide], the figures for the GI50 in the series on colorectal HCT116 (setting [3]), in the series on prostate PC3 and in the series with lung A549 (setting [4]) were 5.99 ± 0.3 µM, 6.3 ± 0.3 µM and 5.67 ± 0.06 µM, respectively.
On to `CC(C)c1cc(C(=O)N(C)c2cccc3cccnc23)c(O)cc1O` [Compound 31b, 2,4-dihydroxy-5-isopropyl-N-methyl-N-(quinolin-8-yl)benzamide], for which the GI50 in the series on colorectal HCT116 (setting [3]) is over 10 µM; in the series with prostate PC3 it was 8.93 ± 0.25 µM; with lung A549 (setting [4]) it was 8.7 ± 0.25 µM.
As to `CC(C)c1cc(C(=O)N(c2ncnc3c2ccn3C)C(C)C)c(O)cc1O` [Compound 27e, 2,4-dihydroxy-N, 5-diisopropyl-N-(7-methyl-7H-pyrrolo[2,3-d]pyrimidin-4-yl)benzamide], the GI50 in the series on colorectal HCT116 (setting [3]) was 8.77 ± 0.1 µM; with prostate PC3, over 10 µM.
On to `CCCN(C(=O)c1cc(C(C)C)c(O)cc1O)c1cnc2ccccc2c1` [Compound 28d, 2,4-dihydroxy-5-isopropyl-N-propyl-N-(quinolin-3-yl)benzamide], for which the GI50 with colorectal HCT116 (setting [3]) came to 1.21 ± 0.13 µM; in the series on prostate PC3, 2.33 ± 0.04 µM; in the series on lung A549 (setting [4]), 1.16 ± 0.1 µM.
For the molecule `CCN(C(=O)c1cc(C(C)C)c(O)cc1O)c1ccc2c(c1)CCCN2` [Compound 33b, N-ethyl-2,4-dihydroxy-5-isopropyl-N-(1,2,3,4-tetrahydroquinolin-6-yl)benzamide], the GI50 with colorectal HCT116 (setting [3]) worked out at 5.38 ± 0.1 µM; with prostate PC3 it was 6.01 ± 0.41 µM.
For the molecule `CC(C)c1cc(C(=O)Nc2cnc3c(ccn3C)c2)c(O)cc1O` [Compound 24b, 2,4-dihydroxy-5-isopropyl-N-(1-methyl-1H-pyrrolo[2,3-b]pyridin-5-yl)benzamide], the 50% growth inhibitory concentration (GI50) in the series with colorectal HCT116 (setting [3]), in the series on prostate PC3 and with lung A549 (setting [4]) was over 10 µM in each case.
For `CC(C)c1cc(C(=O)N(C)c2cccc3ncccc23)c(O)cc1O` [Compound 29b, 2,4-dihydroxy-5-isopropyl-N-methyl-N-(quinolin-5-yl)benzamide], the 50% growth inhibitory concentration (GI50) in the series on colorectal HCT116 (setting [3]), in the series with prostate PC3 and in the series with lung A549 (setting [4]) was over 10 µM each time.
For the molecule `CCCN(C(=O)c1cc(C(C)C)c(O)cc1O)c1ncnc2c1ccn2C` [Compound 27d, 2,4-dihydroxy-5-isopropyl-N-(7-methyl-7H-pyrrolo[2,3-d]pyrimidin-4-yl)-N-propylbenzamide], the GI50 with colorectal HCT116 (setting [3]) and in the series with prostate PC3 was over 10 µM throughout.
For `CC(C)c1cc(C(=O)N(C)c2ncnc3c2ccn3C)c(O)cc1O` [Compound 27b, 2,4-dihydroxy-5-isopropyl-N-methyl-N-(7-methyl-7H-pyrrolo[2,3-d]pyrimidin-4-yl)benzamide], the GI50 in the series on colorectal HCT116 (setting [3]) was 8.96 ± 0.18 µM; in the series with prostate PC3 it was 8.49 ± 0.49 µM.
The like results for `CC(C)c1cc(C(=O)N(C)c2ccc3c(c2)CCCN3)c(O)cc1O` [Compound 33a, 2,4-dihydroxy-5-isopropyl-N-methyl-N-(1,2,3,4-tetrahydroquinolin-6-yl)benzamide] were, in that order, 5.79 ± 0.11 µM and 7.66 ± 0.42 µM.
As for `CCN(C(=O)c1cc(C(C)C)c(O)cc1O)c1ncnc2c1ccn2C` [Compound 27c, N-ethyl-2,4-dihydroxy-5-isopropyl-N-(7-methyl-7H-pyrrolo[2,3-d]pyrimidin-4-yl)benzamide], the GI50 was determined as 3.49 ± 0.15 µM in the series on colorectal HCT116 (setting [3]) and 6.68 ± 0.55 µM with prostate PC3.
The like results for `CCN(C(=O)c1cc(C(C)C)c(O)cc1O)c1ccc2c(c1)CCCN2C` [Compound 33d, N-ethyl-2,4-dihydroxy-5-isopropyl-N-(1-methyl-1,2,3,4-tetrahydroquinolin-6-yl)benzamide] were, in that order, 5.71 ± 0.12 µM and 8.18 ± 0.46 µM.
Consider `CCN(C(=O)c1cc(C(C)C)c(O)cc1O)c1ccncc1` [Compound 19b, N-ethyl-2,4-dihydroxy-5-isopropyl-N-(pyridin-4-yl)benzamide], for which the GI50 in the series with colorectal HCT116 (setting [3]) is 0.64 ± 0.41 µM; in the series on colorectal HCT116 (Table 2, read-out: HCT116 GI50), 0.64 ± 0.41 µM; in the series on liver Hep3B it was 0.1 ± 0.01 µM; in the series with HUVEC cells, under 0.1 µM; with breast MDA-MB-231, 0.08 ± 0.01 µM; in the series with lung A549 (setting [4]), 0.12 ± 0.01 µM. Further, in the series with lung A549 (Table 2, read-out: A549 GI50), the GI50 turned out to be 0.12 ± 0.01 µM. For the same molecule, in series [1] (iv, 2 mg/kg), the Vd was 12 ± 8.9 L/kg. Besides, the AUC(0-inf) in series [1] (iv, 2 mg/kg, IV (2 mg/kg)) amounted to 442 ± 49 ng·h/mL; in series [1] (po, 20 mg/kg, PO (20 mg/kg)), 485 ± 103 ng·h/mL. This molecule showed a clearance in [1] (iv, 2 mg/kg, CL, IV (2 mg/kg)) of 75 ± 4.8 mL/min/kg. The half-life in series [1] (iv, 2 mg/kg, IV (2 mg/kg)) is 8.1 ± 4.7 h; in [1] (po, 20 mg/kg, PO (20 mg/kg)), 11 ± 7.6 h. The same molecule gave a Cmax in series [1] (po, 20 mg/kg) of 51 ± 9 ng/mL. In addition, the time to peak (Tmax) in series [1] (po, 20 mg/kg) came to 0.3 ± 0.1 h. The molecule further gave a bioavailability in series [1] (po, 20 mg/kg) of 11%. For the same molecule, the half-maximal inhibitory concentration (IC50) on HSP90 α protein turned out to be 0.109 ± 0.00535 µM. In addition, the “TGI, tumor growth inhibition” value in [2] is recorded as 29.1%.
For the molecule `CC(C)c1cc(C(=O)Nc2ncnc3c2ccn3C)c(O)cc1O` [Compound 27a, 2,4-dihydroxy-5-isopropyl-N-(7-methyl-7H-pyrrolo[2,3-d]pyrimidin-4-yl)benzamide], the GI50 in the series with colorectal HCT116 (setting [3]) and in the series with prostate PC3 was over 10 µM throughout.
For the molecule `CC(C)c1cc(C(=O)Nc2cnc3[nH]ncc3c2)c(O)cc1O` [Compound 26a, 2,4-dihydroxy-5-isopropyl-N-(1H-pyrazolo[3,4-b]pyridin-5-yl)benzamide], the GI50 in the series on colorectal HCT116 (setting [3]), in the series with prostate PC3 and in the series with lung A549 (setting [4]) was over 10 µM throughout.
In the case of `CC(C)c1cc(C(=O)N(C)c2ccc3c(c2)CCCN3C)c(O)cc1O` [Compound 33c, 2,4-dihydroxy-5-isopropyl-N-methyl-N-(1-methyl-1,2,3,4-tetrahydroquinolin-6-yl)benzamide], the 50% growth inhibitory concentration (GI50) with colorectal HCT116 (setting [3]) worked out at 6.51 ± 0.09 µM; in the series on prostate PC3, 8.5 ± 0.45 µM.
Take `CC(C)c1cc(C(=O)Nc2ccc3[nH]ncc3c2)c(O)cc1O` [Compound 25a, 2,4-dihydroxy-N-(1H-indazol-5-yl)-5-isopropylbenzamide]: the 50% growth inhibitory concentration (GI50) in the series on prostate PC3 and in the series with lung A549 (setting [4]) was over 10 µM throughout.
Consider `CCN(C(=O)c1cc(C(C)C)c(O)cc1O)c1cccc2cccnc12` [Compound 31c, N-ethyl-2,4-dihydroxy-5-isopropyl-N-(quinolin-8-yl)benzamide], for which the 50% growth inhibitory concentration (GI50) with prostate PC3 came out at 2.4 ± 0.27 µM; in the series on lung A549 (setting [4]), 3.7 ± 0.17 µM.
For `CCN(C(=O)c1cc(C(C)C)c(O)cc1O)c1ccc2ncccc2c1` [Compound 30c, N-ethyl-2,4-dihydroxy-5-isopropyl-N-(quinolin-6-yl)benzamide], the figures for the concentration for 50% growth inhibition (GI50) in the series on prostate PC3 and with lung A549 (setting [4]) were 0.46 ± 0.13 µM and 0.51 ± 0.09 µM, respectively.
